The text below walks through data of patent US20220282217A1, “COMPOSITIONS AND METHODS FOR PREPARING T CELL COMPOSITIONS AND USES THEREOF” (priority 2019, published 2022).

pKd: −log10 of the molar value. Where two headings read alike, the source gives them in different places. Where a SMILES comes first, the peptide text is derived from it.

Assay [1] has as its target HLA-A02.01 (Homo sapiens, UniProt P04439, D140Y/D185E/D98H/E176V/E277Q/G131W/G231S/I119V/I121R/I166T/I218V/L300P/L318F/N151K/N90K/P208A/P217A/Q86G/Q94H/R138H/R169H/T345S). In words: Class I MHC peptide binding affinity (displacement of radiolabeled reference peptide). As to conditions: for IC50: allele A02.01, (nM)). The method, boiled down: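 Peptides compete against a prebound radiolabeled reference on MHCI over 2 days at several concentrations.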

In assay [2] the target is T1, HLA-A02.01 (Homo sapiens, UniProt P04439, D140Y/D185E/D98H/E176V/E277Q/G131W/G231S/I119V/I121R/I166T/I218V/N151K/N90K/P208A/P217A/Q86G/Q94H/R138H/R169H).
T1 construct: made in house; host or cells: E. coli
The experiment in a line: Class I MHC peptide binding stability (pMHC-I dissociation, 125I-labeled light chain). As to conditions: for Stability (T1/2 (h)): allele A02.01.

[3] abbreviates: read-out: Observed Affinity (IC50.

Turning to `CC(C)C[C@H](NC(=O)CN)C(=O)N[C@@H](CC(C)C)C(=O)N[C@@H](C)C(=O)N[C@@H](Cc1ccccc1)C(=O)N[C@@H](Cc1c[nH]c2ccccc12)C(=O)N[C@@H](CC(=O)O)C(=O)N[C@@H](CO)C(=O)N[C@@H](CCC(N)=O)C(=O)N[C@H](C(=O)O)C(C)C` (H-GLLAFWDSQV-OH; N-terminus and C-terminus assumed), on HLA-A02.01 [1] (setting [3]), the IC50 worked out at 10 nM. Also, the “Stability (T1/2 (h))” value at HLA-A02.01 [2] is on record as 14.2 h.
For `CC[C@H](C)[C@H](NC(=O)[C@H](Cc1ccc(O)cc1)NC(=O)[C@H](CC(C)C)NC(=O)[C@@H](N)CC(C)C)C(=O)N[C@H](C(=O)N[C@@H](C)C(=O)N[C@@H](Cc1ccccc1)C(=O)N[C@@H](Cc1ccccc1)C(=O)N[C@@H](CC(C)C)C(=O)O)[C@@H](C)O`, in that order: 713 nM and 17 h.
For `CC(C)C[C@H](NC(=O)[C@H](CC(C)C)NC(=O)[C@@H](NC(=O)[C@H](CC(=O)O)NC(=O)[C@H](C)NC(=O)[C@H](CC(C)C)NC(=O)[C@@H](N)CS)C(C)C)C(=O)N[C@@H](CO)C(=O)N[C@H](C(=O)O)C(C)C` (H-CLADVLLSV-OH; N-terminus and C-terminus assumed), in that order: 219 nM and 24 h.
Taken in the same sequence, the figures for `CC(C)C[C@H](NC(=O)[C@@H](N)CC(C)C)C(=O)N[C@@H](C)C(=O)N[C@@H](Cc1ccccc1)C(=O)N[C@@H](Cc1c[nH]c2ccccc12)C(=O)N[C@@H](CC(=O)O)C(=O)N[C@@H](CO)C(=O)N[C@@H](CCC(N)=O)C(=O)N[C@H](C(=O)O)C(C)C` (H-LLAFWDSQV-OH; N-terminus and C-terminus assumed) were 68 nM and 12.8 h.
Take `CSCC[C@H](NC(=O)[C@H](CCC(=O)O)NC(=O)[C@H](CC(C)C)NC(=O)[C@H](CC(C)C)NC(=O)[C@H](CC(C)C)NC(=O)[C@H](CC(=O)O)NC(=O)[C@H](CC(N)=O)NC(=O)[C@H](CC(C)C)NC(=O)[C@@H]1CCCN1)C(=O)O` (H-PLNDLLLEM-OH; N-terminus and C-terminus assumed): at HLA-A02.01 [1] (setting [3]), the IC50 turned out to be 151 nM. Further, the “Stability (T1/2 (h))” value on HLA-A02.01 [2] turned out to be 4.2 h.
For `CSCC[C@H](NC(=O)[C@H](CC(C)C)NC(=O)[C@H](CCC(=O)O)NC(=O)[C@H](CCSC)NC(=O)[C@@H](N)CC(C)C)C(=O)N[C@@H](C)C(=O)NCC(=O)NCC(=O)N[C@@H](CC(=O)O)C(=O)N[C@@H](CC(C)C)C(=O)O` (H-LMELMAGGDL-OH; N-terminus and C-terminus assumed), in that order: 311 nM and 8.9 h.
For `CSCC[C@H](NC(=O)[C@H](CCC(=O)O)NC(=O)[C@H](CC(C)C)NC(=O)[C@H](CC(C)C)NC(=O)[C@H](CC(C)C)NC(=O)CN)C(=O)N[C@@H](CC(C)C)C(=O)N[C@@H](CC(=O)O)C(=O)N[C@@H](C)C(=O)O` (H-GLLLEMLDA-OH; N-terminus and C-terminus assumed), in that order: 558 nM and 0.4 h.
For `CC(C)C[C@H](NC(=O)CN)C(=O)N[C@H](C(=O)N[C@@H](CC(=O)O)C(=O)N[C@@H](CCC(=O)O)C(=O)N[C@@H](CCC(N)=O)C(=O)N[C@@H](CCC(N)=O)C(=O)N[C@@H](CCC(=O)O)C(=O)N[C@H](C(=O)O)C(C)C)C(C)C`, in that order: 44 nM and 7.4 h.
Take `CC(C)C[C@H](NC(=O)[C@H](CO)NC(=O)[C@H](CC(N)=O)NC(=O)[C@H](CS)NC(=O)[C@H](CCC(=O)O)NC(=O)[C@H](Cc1c[nH]cn1)NC(=O)[C@H](CC(C)C)NC(=O)[C@@H](NC(=O)[C@@H](N)CCC(N)=O)C(C)C)C(=O)O`: the IC50 at HLA-A02.01 [1] (setting [3]) is 7770 nM. For the same compound, the “Stability (T1/2 (h))” value on HLA-A02.01 [2] was found to be 0.5 h.
The compound `CC[C@H](C)[C@H](NC(=O)[C@H](CC(N)=O)NC(=O)[C@@H](N)CCSC)C(=O)N[C@@H](C)C(=O)N[C@@H](CC(N)=O)C(=O)N[C@@H](CC(C)C)C(=O)N[C@@H](CC(C)C)C(=O)NCC(=O)N[C@@H](C)C(=O)O` (H-MNIANLLGA-OH; N-terminus and C-terminus assumed) returned an IC50 at HLA-A02.01 [1] (Observed Affinity (IC50) of 128 nM. Besides, at HLA-A02.01 [2], the “Stability (T1/2 (h))” value is recorded as 0.3 h.
For `CC[C@H](C)[C@H](N)C(=O)N[C@@H](CCSC)C(=O)N[C@@H](CCC(N)=O)C(=O)N[C@@H](CC(C)C)C(=O)N[C@@H](CCSC)C(=O)N1CCC[C@H]1C(=O)N[C@@H](Cc1ccccc1)C(=O)NCC(=O)N[C@@H](CS)C(=O)O` (H-IMQLMPFGC-OH; N-terminus and C-terminus assumed), the pKd on HLA-A02.01 [1] (EGFR T790M peptides, HLA allele A02.01, read-out: Affinity) is 5.92. The IC50 at HLA-A02.01 [1] (setting [3]) came to 1610 nM. Besides, the “Stability (half-life (hr.))” value on HLA-A02.01 [2] (EGFR T790M peptides, HLA allele A02.01) is 0.3701 h. Besides, the “Stability (T1/2 (h))” value at HLA-A02.01 [2] was 0.4 h.
Regarding `CC[C@H](C)[C@H](NC(=O)[C@H](Cc1ccc(O)cc1)NC(=O)[C@@H]1CCCN1C(=O)[C@H](CO)NC(=O)[C@H](CC(N)=O)NC(=O)[C@H](CO)NC(=O)[C@H](CCC(=O)O)NC(=O)[C@H](Cc1c[nH]cn1)NC(=O)[C@H](CC(C)C)NC(=O)[C@@H](N)C(C)C)C(=O)O` (H-VLHESNSPYI-OH; N-terminus and C-terminus assumed), on HLA-A02.01 [1] (setting [3]), the IC50 turned out to be 131 nM. Further, the “Stability (T1/2 (h))” value at HLA-A02.01 [2] was determined as 1.9 h.
Taken in the same sequence, the figures for `CC[C@H](C)[C@H](NC(=O)[C@H](Cc1ccc(O)cc1)NC(=O)[C@H](CCC(=O)O)NC(=O)CNC(=O)[C@H](CO)NC(=O)[C@@H](N)Cc1ccccc1)C(=O)N1CCC[C@H]1C(=O)N[C@H](C(=O)N[C@H](C(=O)O)C(C)C)[C@@H](C)O` (H-FSGEYIPTV-OH; N-terminus and C-terminus assumed) were 3 nM and 6.8 h.
For `CC[C@H](C)[C@H](NC(=O)[C@H](Cc1ccccc1)NC(=O)[C@H](CS)NC(=O)[C@H](CO)NC(=O)[C@H](CC(N)=O)NC(=O)[C@H](CO)NC(=O)[C@H](C)NC(=O)[C@H](CO)NC(=O)[C@H](CC(C)C)NC(=O)[C@H](C)N)C(=O)O` (H-ALSASNSCFI-OH; N-terminus and C-terminus assumed), in that order: 226 nM and 0.8 h.
For `CC[C@H](C)[C@H](NC(=O)[C@@H](NC(=O)[C@H](CC(C)C)NC(=O)[C@@H](NC(=O)[C@@H]1CCCN1C(=O)[C@H](CCCNC(=N)N)NC(=O)[C@H](Cc1c[nH]c2ccccc12)NC(=O)[C@H](CC(N)=O)NC(=O)[C@H](CCSC)NC(=O)CN)[C@@H](C)CC)[C@@H](C)O)C(=O)O`, in that order: 282 nM and 0.5 h.
Take `CC[C@H](C)[C@H](NC(=O)[C@H](Cc1ccc(O)cc1)NC(=O)[C@H](CC(C)C)NC(=O)[C@@H](N)CO)C(=O)N[C@H](C(=O)NCC(=O)N[C@@H](Cc1ccccc1)C(=O)N[C@@H](Cc1ccc(O)cc1)C(=O)NCC(=O)N[C@@H](C)C(=O)O)C(C)C` (H-SLYIVGFYGA-OH; N-terminus and C-terminus assumed): the IC50 at HLA-A02.01 [1] (setting [3]) is 390 nM. In addition, the “Stability (T1/2 (h))” value on HLA-A02.01 [2] was found to be 0.4 h.
For `CC(C)C[C@H](NC(=O)[C@H](Cc1ccccc1)NC(=O)[C@@H](NC(=O)[C@H](Cc1ccc(O)cc1)NC(=O)[C@@H](NC(=O)CN)C(C)C)[C@@H](C)O)C(=O)N1CCC[C@H]1C(=O)N[C@@H](CO)C(=O)N[C@H](C(=O)O)[C@@H](C)O` (H-GVYTFLPST-OH; N-terminus and C-terminus assumed), in that order: 779 nM and 1.3 h.
`CC(C)C[C@H](NC(=O)[C@@H](N)CCCCN)C(=O)NCC(=O)NCC(=O)NCC(=O)N[C@@H](CCC(N)=O)C(=O)N[C@@H](Cc1c[nH]cn1)C(=O)NCC(=O)N[C@@H](CCC(=O)O)C(=O)N[C@H](C(=O)O)C(C)C` (H-KLGGGQHGEV-OH; N-terminus and C-terminus assumed) gave a half-inhibitory concentration (IC50) at HLA-A02.01 [1] (Observed Affinity (IC50) of 387 nM. At HLA-A02.01 [2], the “Stability (T1/2 (h))” value amounted to 0.4 h.
In the case of `CC[C@H](C)[C@H](N)C(=O)N[C@@H](CC(C)C)C(=O)N[C@@H](CCSC)C(=O)N[C@@H](CCC(=O)O)C(=O)N[C@@H](CC(C)C)C(=O)N[C@@H](CCSC)C(=O)N[C@@H](C)C(=O)NCC(=O)NCC(=O)O` (H-ILMELMAGG-OH; N-terminus and C-terminus assumed), on HLA-A02.01 [1] (setting [3]), the IC50 stood at 223 nM. Besides, the “Stability (T1/2 (h))” value on HLA-A02.01 [2] was determined as 0.5 h.
Taken in the same sequence, the figures for `CSCC[C@H](NC(=O)[C@@H](N)C(C)C)C(=O)N[C@@H](C)C(=O)N[C@@H](Cc1ccc(O)cc1)C(=O)N[C@H](C(=O)N[C@@H](CCSC)C(=O)N[C@@H](C)C(=O)NCC(=O)N[C@H](C(=O)O)C(C)C)C(C)C` (H-VMAYVMAGV-OH; N-terminus and C-terminus assumed) were 2 nM and 16.5 h.
For `CSCC[C@H](NC(=O)[C@H](CCC(=O)O)NC(=O)[C@H](CC(C)C)NC(=O)[C@H](CC(C)C)NC(=O)[C@H](CC(C)C)NC(=O)[C@H](CC(=O)O)NC(=O)[C@H](CO)NC(=O)[C@H](CC(C)C)NC(=O)[C@@H]1CCCN1)C(=O)O` (H-PLSDLLLEM-OH; N-terminus and C-terminus assumed), in that order: 404 nM and 2.7 h.
For `CSCC[C@H](NC(=O)[C@@H](NC(=O)[C@H](Cc1ccc(O)cc1)NC(=O)[C@H](C)NC(=O)[C@H](CCSC)NC(=O)[C@@H](NC(=O)[C@@H](N)Cc1ccc(O)cc1)C(C)C)C(C)C)C(=O)N[C@@H](C)C(=O)NCC(=O)N[C@H](C(=O)O)C(C)C`, in that order: 57 nM and 20.9 h.
With `CC(C)C[C@H](NC(=O)[C@@H](NC(=O)[C@H](CC(=O)O)NC(=O)[C@H](CC(C)C)NC(=O)[C@@H](NC(=O)[C@@H](N)Cc1ccc(O)cc1)[C@@H](C)O)C(C)C)C(=O)N[C@@H](CCC(=O)O)C(=O)N[C@@H](CCCNC(=N)N)C(=O)N[C@@H](CS)C(=O)O`, the IC50 on HLA-A02.01 [1] (setting [3]) was found to be 1760 nM. Also, the “Stability (T1/2 (h))” value on HLA-A02.01 [2] is listed as 6.6 h.

For orientation: IC50 means the concentration at which inhibition is half-maximal.
